Here are results for one compound from US20170298056A1, “SMALL MOLECULE INHIBITORS OF HIV-1 ENTRY AND METHODS OF USE THEREOF” (Dana-Farber Cancer Institute, Inc., priority 2014, published 2017).

One assay relates to A-MLV. Description: Infection of human PBMC by control A-MLV. The format is cell-based, amphotropic murine leukemia virus. Conditions: range of tested concentrations. The procedure:
Peripheral blood mononuclear cells (PBMC). Human blood was purchased from Research Blood Components, who obtained a consent firm from each donor, according to the American Association of Blood Banks guidelines, PBMC were isolated from the whole blood using a Ficoll-Paque gradient (Ficoll-Paque PLUS, Amersham Biosciences) and activated at concentration of 10^6 live cells/ml for 3 days in RPMI-PBMC medium (RPMI-1640 supplemented with 20% FBS, 10% IL-2 (Hemagen, Columbia, Md.), 100 μg/ml primocin (InvivoGen, San Diego, Calif.)) with 4 μg/ml phytohemagglutinin (Sigma-Aldrich, St. Louis, Mo.). In some cases, cells were frozen, thawed and activated prior to the assay.
Viral infection assay. Each test compound was serially diluted in DMSO in a 96-well B&W isoplate (PerkinElmer, Boston, Mass.) using an HP D300 Digital Dispenser, to a final volume of 450 nl. DMSO was used as a control. […] The activity of the firefly luciferase, which was used as a reporter protein in the system, was measured with a Centro LB 960 luminometer (Berthold Technologies, Oak Ridge, Tenn.). One hundred microliters of assay buffer (15 mM MgSO4, 15 mM KH2PO4/K2HPO4 pH 7.8, 1 mM ATP and 1 mM DTT) was injected to each well, followed by a 50 μl injection of 1 mM Dluciferin potassium salt (BD Pharmingen, San Jose, Calif.); luminescence was measured for 2 sec. […]

A further assay deals with SIVmac239. Kind of assay: Viral infection assay, SIV Env. The format is cell-based. The following applies: virus with SIVmac239 Env. The protocol: Production of recombinant HIV-1 expressing luciferase. […] After 48 hours, the supernatant was collected, buffered with 50 mM Hepes pH 7.4 (final concentration) and centrifuged for 5 minutes at 750×g and 4° C. The virus-containing supernatant was used directly or frozen at −80° C.
Viral infection assay. Each test compound was serially diluted in DMSO in a 96-well B&W isoplate (PerkinElmer, Boston, Mass.) using an HP D300 Digital Dispenser, to a final volume of 450 nl. DMSO was used as a control. Viruses pseudotyped with a specific Env were added to each well and incubated briefly at room temperature. Cf2Th-CD4/CCR5 cells were detached with StemPro Accutase Cell Dissociation Reagent (Invitrogen, cat #A11105-01), washed once, and 5000 cells were added to each well. […] Following incubation, the medium was aspirated and cells were lysed with 30 μl of Passive Lysis Buffer (Promega, cat #E1941). The activity of the firefly luciferase, which was used as a reporter protein in the system, was measured with a Centro LB 960 luminometer (Berthold Technologies, Oak Ridge, Tenn.). One hundred microliters of assay buffer (15 mM MgSO4, 15 mM KH2PO4/K2HPO4 pH 7.8, 1 mM ATP and 1 mM DTT) was injected to each well, followed by a 50 μl injection of 1 mM Dluciferin potassium salt (BD Pharmingen, San Jose, Calif.); luminescence was measured for 2 sec. […]

Another assay has as its system HIV-1MN27. Kind of assay: Viral infection assay, CXCR4-tropic virus, Cf2Th-CD4/CXCR4 cells. The assay is classed as cell-based. The following applies: HIV-1MN27, Cf2Th cells expressing CD4 and CXCR4.

pIC50: −log10 of the molar value.

With `O=C(N/N=C/c1ccc(O)cc1)Nc1cccc2nsnc12` [Compound 18A], the “effect on A-MLV infection” value with A-MLV is on record as “No significant effect”. The inhibition of infection result in the assay with SIVmac239 is listed as “significantly less potent”. Also, the pIC50 (usually −log10 of the IC50, conventionally taken in molar units) with HIV-1MN27 is about 4.60.
